Laboratory results: PubChem BioAssay AID330 (DTP/NCI, 2004)
Several values for one entry are separate records, joined by “and”; a condition that tells them apart may be missing. Equal entries are not always repeated. Inconclusive results and toxic doses are left out.

Tested on: P388 leukemia ip, CD2F1 mice, survival T/C
Assay: NCI In Vivo Anticancer Drug Screen. Data for tumor model P388 Leukemia (intraperitoneal) in CD2F1 (CDF1) mice
Conditions: endpoint: median survival time, higher = longer survival
Procedure, shortened: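 Mice carrying the transplanted tumor received test compound or vehicle. Survival was recorded in each group, and the value is the treated-group measurement divided by that of the vehicle-treated control group.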

[1] = dose: 12.5 mg/kg/injection, schedule: Q01DX005 (ip), vehicle: Klucel (hydroxypropylcellulose) (HPC)
[2] = dose: 25.0 mg/kg/injection, schedule: Q01DX005 (ip), vehicle: Klucel (hydroxypropylcellulose) (HPC)
[3] = dose: 50.0 mg/kg/injection, schedule: Q01DX005 (ip), vehicle: Klucel (hydroxypropylcellulose) (HPC)
[4] = dose: 100.0 mg/kg/injection, schedule: Q01DX005 (ip), vehicle: Klucel (hydroxypropylcellulose) (HPC)
[5] = dose: 200.0 mg/kg/injection, schedule: Q01DX005 (ip), vehicle: Klucel (hydroxypropylcellulose) (HPC)
[6] = dose: 50.0 mg/kg/injection, schedule: Q01DX005 (ip), vehicle: saline with Tween-80
[7] = dose: 100.0 mg/kg/injection, schedule: Q01DX005 (ip), vehicle: saline with Tween-80
[8] = dose: 200.0 mg/kg/injection, schedule: Q01DX005 (ip), vehicle: saline with Tween-80
[9] = dose: 12.5 mg/kg/injection, schedule: Q01DX009 (ip), vehicle: saline with Tween-80
[10] = dose: 25.0 mg/kg/injection, schedule: Q01DX009 (ip), vehicle: saline with Tween-80
[11] = dose: 50.0 mg/kg/injection, schedule: Q01DX009 (ip), vehicle: saline with Tween-80
[12] = dose: 100.0 mg/kg/injection, schedule: Q04DX003 (ip), vehicle: saline with Tween-80
[13] = dose: 200.0 mg/kg/injection, schedule: Q04DX003 (ip), vehicle: saline with Tween-80
[14] = dose: 100.0 mg/kg/injection, schedule: Q04DX002 (ip), vehicle: saline with Tween-80

## CN(C)CCSSCCN(C)C.[Cl][Zn][Cl]
dose: 6.25 mg/kg/injection, schedule: Q01DX005 (ip), vehicle: Klucel (hydroxypropylcellulose) (HPC)
  T/C: 102 % of control
[1]
  T/C: 95 % of control
[2]
  T/C: 97 % of control

## CC(C)(C)OC(=O)NC(CC(=O)OCc1ccccc1)C(=O)ON1C(=O)CCC1=O (centres undefined)
[3]
  T/C: 106 % of control
[4]
  T/C: 106 % of control
[5]
  T/C: 97 % of control

## O=C1NC2(CCCCC2)C(=O)N1CO
dose: 25.0 mg/kg/injection, schedule: Q01DX005 (ip), vehicle: saline with Tween-80
  T/C: 101 % of control and 109 % of control
[6]
  T/C: 100 % of control and 101 % of control
[7]
  T/C: 103 % of control and 108 % of control
[8]
  T/C: 116 % of control

## O=C(NC(=S)c1cccc2ccccc12)Nc1ccc(Cl)c(Cl)c1
[9]
  T/C: 89 % of control
[10]
  T/C: 87 % of control
[11]
  T/C: 103 % of control

## CCCC[As](CCCC)SC1OC(C2COC(C)(C)O2)C2OC(C)(C)OC12 (centres undefined)
dose: 0.78 mg/kg/injection, schedule: Q01DX009 (ip), vehicle: water
  T/C: 101 % of control
dose: 1.56 mg/kg/injection, schedule: Q01DX009 (ip), vehicle: water
  T/C: 117 % of control
dose: 3.13 mg/kg/injection, schedule: Q01DX009 (ip), vehicle: distilled water + Tween-80
  T/C: 122 % of control
dose: 3.13 mg/kg/injection, schedule: Q01DX009 (ip), vehicle: water
  T/C: 101 % of control
dose: 6.25 mg/kg/injection, schedule: Q01DX009 (ip), vehicle: distilled water + Tween-80
  T/C: 96 % of control
dose: 6.25 mg/kg/injection, schedule: Q01DX009 (ip), vehicle: water
  T/C: 111 % of control
dose: 12.5 mg/kg/injection, schedule: Q01DX009 (ip), vehicle: distilled water + Tween-80
  T/C: 123 % of control
dose: 25.0 mg/kg/injection, schedule: Q01DX009 (ip), vehicle: distilled water + Tween-80
  T/C: 88 % of control

## O=C1C(=O)c2ccccc2-c2ccccc21
dose: 6.25 mg/kg/injection, schedule: Q01DX009 (ip), vehicle: saline with Tween-80
  T/C: 104 % of control
[9]
  T/C: 104 % of control
[10]
  T/C: 108 % of control
[11]
  T/C: 100 % of control

## CCCN(CCNc1cc(OC)cc2cccnc12)C(C)C
dose: 12.5 mg/kg/injection, schedule: Q01DX005 (ip), vehicle: saline
  T/C: 107 % of control
dose: 25.0 mg/kg/injection, schedule: Q01DX005 (ip), vehicle: saline
  T/C: 107 % of control
dose: 50.0 mg/kg/injection, schedule: Q01DX005 (ip), vehicle: saline
  T/C: 106 % of control and 88 % of control

## CCOC(=O)c1c[nH]c2c(=O)n(C)c(=O)[nH]c12
[12]
  T/C: 93 % of control
[13]
  T/C: 100 % of control

## Cc1cccc(C(=O)N2C(=O)Cc3ccccc32)c1
dose: 100.0 mg/kg/injection, schedule: Q01DX001 (ip), vehicle: Klucel (hydroxypropylcellulose) (HPC)
  T/C: 99 % of control
dose: 200.0 mg/kg/injection, schedule: Q01DX001 (ip), vehicle: Klucel (hydroxypropylcellulose) (HPC)
  T/C: 94 % of control

## CNC(=O)c1ccccc1NC(=O)c1ccccc1N=[N+]=[N-]
[3]
  T/C: 100 % of control
[4]
  T/C: 100 % of control
[5]
  T/C: 98 % of control

## O=C(Nc1ccc(Cl)cc1)Nc1nnc(Cc2ccc(Cl)cc2)o1
[6]
  T/C: 99 % of control
[7]
  T/C: 87 % of control

## COc1ccc(-c2cc(=O)c3cccc(CC(=O)O)c3o2)cc1
[1]
  T/C: 105 % of control
[2]
  T/C: 104 % of control
[3]
  T/C: 114 % of control and 98 % of control
[4]
  T/C: 170 % of control

## CCCCCCCCCCCCCCCC[N+](C)(C)CCOC(C)=O
[9]
  T/C: 109 % of control
dose: 12.5 mg/kg/injection, schedule: Q01DX009 (ip), vehicle: saline
  T/C: 111 % of control
[10]
  T/C: 109 % of control
dose: 25.0 mg/kg/injection, schedule: Q01DX009 (ip), vehicle: saline
  T/C: 100 % of control

## NNc1n[nH]c(=O)c2cnccc12
dose: 25.0 mg/kg/injection, schedule: Q04DX002 (ip), vehicle: saline with Tween-80
  T/C: 96 % of control
dose: 50.0 mg/kg/injection, schedule: Q04DX002 (ip), vehicle: saline with Tween-80
  T/C: 93 % of control
[14]
  T/C: 100 % of control and 95 % of control

## NSc1nc2ccccc2s1
[12]
  T/C: 100 % of control
[13]
  T/C: 100 % of control

## CCCc1c(-c2ccccc2)nc(N)nc1-c1nc(N)nc(-c2ccccc2)c1CCC
dose: 60.0 mg/kg/injection, schedule: Q01DX005 (ip), vehicle: saline
  T/C: 100 % of control
dose: 120.0 mg/kg/injection, schedule: Q01DX005 (ip), vehicle: saline
  T/C: 95 % of control

## CCC1CN2CCO[Si](CC[Si](C)(C)C)(OCC2)O1 (centres undefined)
[3]
  T/C: 97 % of control
[4]
  T/C: 97 % of control
[5]
  T/C: 101 % of control and 104 % of control

## C[C@H](CCC1=NC(C)(C)CO1)C1CCC2[C@@H]3C(O)C[C@@H]4CC(O)CC[C@]4(C)C3CC[C@@]21C (some centres undefined)
dose: 60.0 mg/kg/injection, schedule: Q01DX005 (ip), vehicle: saline with Tween-80
  T/C: 90 % of control
dose: 120.0 mg/kg/injection, schedule: Q01DX005 (ip), vehicle: saline with Tween-80
  T/C: 87 % of control

## CC(C)=C[Si](C)(C)C
[11]
  T/C: 103 % of control
dose: 100.0 mg/kg/injection, schedule: Q01DX009 (ip), vehicle: saline with Tween-80
  T/C: 110 % of control
dose: 200.0 mg/kg/injection, schedule: Q01DX009 (ip), vehicle: saline with Tween-80
  T/C: 103 % of control

## CCN(CC)CCO/N=c1\nc(-c2ccccc2)c2cc(Cl)ccc2s1
dose: 50.0 mg/kg/injection, schedule: Q01DX009 (ip), vehicle: saline
  T/C: 100 % of control
dose: 100.0 mg/kg/injection, schedule: Q01DX009 (ip), vehicle: saline
  T/C: 103 % of control
dose: 200.0 mg/kg/injection, schedule: Q01DX009 (ip), vehicle: saline
  T/C: 104 % of control

## FC(F)(F)c1ccccc1C(Nc1nncs1)Nc1nncs1
[6]
  T/C: 97 % of control
[7]
  T/C: 101 % of control
[8]
  T/C: 107 % of control

## CCCN1C(=O)C(C)N(S(=O)(=O)c2ccc(-n3nc(C)cc3C)cc2)C1=S (centres undefined)
[14]
  T/C: 94 % of control
dose: 200.0 mg/kg/injection, schedule: Q04DX002 (ip), vehicle: saline with Tween-80
  T/C: 102 % of control
dose: 400.0 mg/kg/injection, schedule: Q04DX002 (ip), vehicle: saline with Tween-80
  T/C: 100 % of control

## CC(=O)OCC#CCOC(C)=O
dose: 12.5 mg/kg/injection, schedule: Q01DX009 (ip), vehicle: saline sonified
  T/C: 100 % of control
dose: 25.0 mg/kg/injection, schedule: Q01DX009 (ip), vehicle: saline sonified
  T/C: 100 % of control
dose: 50.0 mg/kg/injection, schedule: Q01DX009 (ip), vehicle: saline sonified
  T/C: 100 % of control

## COc1ccc(S(=O)(=O)c2cnc(N)nc2N)cc1
dose: 100.0 mg/kg/injection, schedule: Q01DX001 (ip), vehicle: saline
  T/C: 97 % of control
dose: 200.0 mg/kg/injection, schedule: Q01DX001 (ip), vehicle: saline
  T/C: 93 % of control
dose: 400.0 mg/kg/injection, schedule: Q01DX001 (ip), vehicle: saline
  T/C: 90 % of control

## CN=C(NC#N)NCCSCc1nc[nH]c1C
[2]
  T/C: 102 % of control
[3]
  T/C: 93 % of control
[4]
  T/C: 93 % of control
[5]
  T/C: 102 % of control
dose: 400.0 mg/kg/injection, schedule: Q01DX005 (ip), vehicle: Klucel (hydroxypropylcellulose) (HPC)
  T/C: 93 % of control

## Cc1cccc(C)c1NC1=C(Cl)C(=O)c2ccccc2C1=O
dose: 3.75 mg/kg/injection, schedule: Q01DX005 (ip), vehicle: saline with Tween-80
  T/C: 103 % of control
dose: 7.5 mg/kg/injection, schedule: Q01DX005 (ip), vehicle: saline with Tween-80
  T/C: 97 % of control
dose: 15.0 mg/kg/injection, schedule: Q01DX005 (ip), vehicle: saline with Tween-80
  T/C: 100 % of control

## CC(=O)Nc1cc(Cl)cc2c1-c1ccc(Cl)cc1C2N(C)C (centres undefined)
[3]
  T/C: 96 % of control
[4]
  T/C: 100 % of control
[5]
  T/C: 87 % of control

## N#CC1=C(N)Oc2c(c(-c3ccccc3)nn2-c2ccccc2)C1c1ccccc1 (centres undefined)
dose: 50.0 mg/kg/injection, schedule: Q01DX009 (ip), vehicle: Klucel (hydroxypropylcellulose) (HPC)
  T/C: 100 % of control
dose: 100.0 mg/kg/injection, schedule: Q01DX009 (ip), vehicle: Klucel (hydroxypropylcellulose) (HPC)
  T/C: 105 % of control
dose: 200.0 mg/kg/injection, schedule: Q01DX009 (ip), vehicle: Klucel (hydroxypropylcellulose) (HPC)
  T/C: 100 % of control
